Experiment in all cases: DTP human tumour cell line panel, 48 h
The subject of experiment [1] is ACHN.
In experiment [2] the test system is COLO 205.
Experiment [3] concerns EKVX.
Experiment [4] has as its system HCT-116.
Experiment [5] has as its system HCT-15.
In experiment [6] the test system is M14.
Experiment [7] has as its system MOLT-4.
Experiment [8] relates to NCI-H460.
The subject of experiment [9] is OVCAR-4.
Experiment [10] deals with OVCAR-5.
Experiment [11] has as its system SK-OV-3.
The subject of experiment [12] is SN12C.
In experiment [13] the test system is SNB-19.
In experiment [14] the test system is SW-620.
The subject of experiment [15] is UO-31.

The structures appear in SMILES notation.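 Exposure lasted 48 hours, with cells grown in 96-well plates and compounds tested at five concentrations. Abbreviation: GI50, concentration required for 50% inhibition of growth.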 The source made the active and inactive calls. No stated cut-off is given here; in the data, active = GI50 up to about 1.1 µM and inactive = higher.

For the molecule `COc1ccc(N/N=C(\CCN(C)C)c2ccccc2)cc1`, the GI50 in experiment [1] was 1.36 µM (inactive); in experiment [2] it was 2.78 µM (inactive); in experiment [3], 2.2 µM (inactive); in [4], 3.56 µM (inactive); in experiment [5] it was 1.15 µM; in experiment [6] it was 10.9 µM (inactive). For the same molecule, the GI50 in experiment [7] is 3.39 µM (inactive); in [8], 3.12 µM (inactive); in experiment [9], 4.67 µM (inactive); in [10], 9.57 µM (inactive); in experiment [11], 3.41 µM (inactive); in experiment [12], 3.9 µM (inactive). In addition, the figures for the GI50 in [13], in experiment [14] and in experiment [15] were 3.01 µM (inactive), 2.86 µM (inactive) and 1.37 µM (inactive), respectively.

Consider `Cn1nc(-c2ccccc2)c2c(/C=C/c3ccccc3)onc2c1=O`, for which the GI50 in [1] was > 100 µM (inactive); in experiment [2] it was > 100 µM (inactive); in experiment [3] it was 67.1 µM (inactive); in experiment [4] it was > 100 µM (inactive); in [5] it was > 100 µM; in experiment [6] it was > 100 µM (inactive). For the same molecule, the GI50 in experiment [7] was > 100 µM (inactive); in [8], > 100 µM (inactive); in experiment [10], > 100 µM (inactive); in experiment [11], 43.8 µM (inactive); in experiment [12], > 100 µM (inactive); in [13], 67.3 µM (inactive). Besides, the GI50 in [15] was 6.82 µM (inactive).

With `CC(C)(C)c1cc(COc2c3sc(=S)sc3c(OCc3cc(C(C)(C)C)cc(C(C)(C)C)c3)c3sc(=S)sc23)cc(C(C)(C)C)c1`, the GI50 was > 100 µM (inactive) in [1]; > 100 µM (inactive) in experiment [2]; > 100 µM (inactive) in experiment [3]; > 100 µM (inactive) in experiment [4]; > 100 µM in experiment [5]; > 100 µM (inactive) in experiment [6]. For the same molecule, the GI50 in experiment [7], in [8], in experiment [9], in experiment [11], in experiment [12] and in experiment [13] was > 100 µM (inactive) throughout. In addition, in experiment [14], the GI50 was > 100 µM (inactive).

Turning to `c1cnc2c(c1)-n1cccc1C1(CCSC1)NN2` (stereo unspecified), the GI50 is > 100 µM (inactive) in [1]; > 100 µM (inactive) in experiment [2]; > 100 µM (inactive) in [3]; > 100 µM (inactive) in experiment [4]; > 100 µM in experiment [5]; > 100 µM (inactive) in [6]. For the same molecule, the GI50 in experiment [7], in experiment [8], in experiment [9], in [10], in experiment [12] and in [13] was > 100 µM (inactive) throughout. The GI50 in experiment [14] and in experiment [15] was > 100 µM (inactive) each time.

Turning to `OCC1CC2C=CCC(C2)C1` (stereo unspecified), the GI50 in experiment [1], in experiment [2], in experiment [3], in experiment [4], in experiment [6] and in experiment [7] was > 100 µM (inactive) in each case. Besides, the GI50 in [8], in experiment [9], in experiment [10], in experiment [11], in experiment [12] and in [13] was > 100 µM (inactive) each time. Further, the GI50 in experiment [14] and in [15] was > 100 µM (inactive) each time.

Turning to `CCOC(=O)C1(Br)C(c2ccccc2)NC(=O)N(C2OC(COC(=O)c3ccccc3)C(OC(=O)c3ccccc3)C2OC(=O)c2ccccc2)C1(C)Br` (stereo unspecified), the GI50 in experiment [1] is 30.8 µM (inactive); in experiment [2] it was 24.4 µM (inactive); in [3], 36.7 µM (inactive); in experiment [4], 18.2 µM (inactive); in experiment [5], 15.8 µM; in [6] it was 21 µM (inactive). The GI50 in experiment [7] is 18.2 µM (inactive); in [8], 31 µM (inactive); in [9], 13.9 µM (inactive); in experiment [11], 42.9 µM (inactive); in experiment [12], 34 µM (inactive); in [13], 39.9 µM (inactive). The GI50 was 14.4 µM (inactive) in experiment [14] and 25.9 µM (inactive) in [15].

For `COc1nc(NC2OCC(O)C(O)C2O)c(NC2OCC(O)C(O)C2O)c(=O)n1C` (stereo unspecified), the GI50 is > 100 µM (inactive) in experiment [1]; > 100 µM (inactive) in [2]; > 100 µM (inactive) in experiment [3]; > 100 µM (inactive) in [4]; > 100 µM in [5]; > 100 µM (inactive) in experiment [6]. The GI50 in [7], in experiment [8], in experiment [9], in experiment [11], in [12] and in experiment [13] was > 100 µM (inactive) throughout. Further, the GI50 in experiment [14] and in [15] was > 100 µM (inactive) in each case.

`NCC(=O)OCN1C(=O)C2C3C=CC(C2C1=O)C1C2C(=O)N(COC(=O)CN)C(=O)C2C31` (stereo unspecified): the GI50 is 24.5 µM (inactive) in experiment [1]; 21.4 µM (inactive) in experiment [2]; 16.9 µM (inactive) in experiment [4]; 19.1 µM in experiment [5]; 20.5 µM (inactive) in [6]; 28.9 µM (inactive) in experiment [7]. In addition, the GI50 in experiment [8] was 16.6 µM (inactive); in experiment [9] it was 20 µM (inactive); in experiment [11], 76.9 µM (inactive); in experiment [12] it was 23.3 µM (inactive); in [13] it was 71.3 µM (inactive); in [14], 22.4 µM (inactive). Also, the GI50 in experiment [15] is 31.9 µM (inactive).

As for `COc1cc(C)c(C)c(OC(=O)c2c(C)c(C)c(OC)c(C)c2OC)c1C`, the GI50 in [1] was 13.4 µM (inactive); in experiment [2], 3.18 µM (inactive); in experiment [3] it was 15.3 µM (inactive); in experiment [4] it was 4.1 µM (inactive); in experiment [5] it was 3.68 µM; in experiment [6], 6.75 µM (inactive). Also, the GI50 was 9.31 µM (inactive) in experiment [7]; 3.98 µM (inactive) in experiment [8]; 10.3 µM (inactive) in experiment [9]; 28.8 µM (inactive) in experiment [10]; 7.19 µM (inactive) in experiment [11]; 15.7 µM (inactive) in experiment [12]. The values for the GI50 in experiment [13], in [14] and in experiment [15] were 15.4 µM (inactive), 3.86 µM (inactive) and 32.4 µM (inactive), respectively.

As for `CC(C)OP(=O)(OC(C)C)/C(=N/Nc1ccc([N+](=O)[O-])cc1)NCCN/C(=N\Nc1ccc([N+](=O)[O-])cc1)P(=O)(OC(C)C)OC(C)C`, the GI50 in experiment [1] is 3.56 µM (inactive); in [2], 3.93 µM (inactive); in [3], 4.54 µM (inactive); in [4], 3.48 µM (inactive); in experiment [5], 4.61 µM; in experiment [6], 14.8 µM (inactive). In addition, the GI50 is 3.31 µM (inactive) in experiment [7]; 3.71 µM (inactive) in experiment [8]; 7.19 µM (inactive) in experiment [9]; 31.6 µM (inactive) in [10]; 4.07 µM (inactive) in [12]; 3.35 µM (inactive) in experiment [13]. The GI50 in experiment [14] is 3.76 µM (inactive); in experiment [15] it was 4.4 µM (inactive).

As for `N#CC1(c2nc3ccccc3o2)C(=O)C(=O)N(c2ccc(Cl)c(Cl)c2)C(=O)C1=O`, the GI50 in experiment [1] is > 100 µM (inactive); in experiment [2], > 100 µM (inactive); in [3], > 100 µM (inactive); in experiment [5], 74.6 µM; in experiment [6] it was > 100 µM (inactive); in [7], 30.3 µM (inactive). In addition, the GI50 is > 100 µM (inactive) in experiment [8]; 58.6 µM (inactive) in [9]; > 100 µM (inactive) in [10]; > 100 µM (inactive) in experiment [12]; > 100 µM (inactive) in experiment [13]; > 100 µM (inactive) in experiment [14]. Besides, in [15], the GI50 was > 100 µM (inactive).

Take `Cc1cc2c(cc1CO)N1Cc3cc(C)c(CO)cc3N(C2)C1`: the GI50 in experiment [2], in experiment [3], in [4], in [6], in experiment [7] and in [8] was > 100 µM (inactive) in each case. Besides, the GI50 in [9], in [11], in experiment [12], in experiment [13] and in experiment [14] was > 100 µM (inactive) throughout.

In the case of `CC(C)N1C(C)[C@@H](c2ccccc2)O[P@@]1(=O)CC1=CCCCC1` (stereo partly specified), the GI50 is > 100 µM (inactive) in experiment [1]; > 100 µM (inactive) in experiment [2]; > 100 µM (inactive) in experiment [3]; 90.2 µM (inactive) in experiment [4]; > 100 µM in experiment [5]; > 100 µM (inactive) in experiment [6]. Besides, the GI50 in experiment [7] was 80.7 µM (inactive); in experiment [8], > 100 µM (inactive); in experiment [10], > 100 µM (inactive); in [11], > 100 µM (inactive); in [12], > 100 µM (inactive); in [14], > 100 µM (inactive). Besides, the GI50 in experiment [15] was > 100 µM (inactive).

As to `C[C@]12CCC[C@H](Cl)C1(O)C[C@H](C(=O)O)CC2` (stereo partly specified), the GI50 in [1] was > 100 µM (inactive); in experiment [2] it was > 100 µM (inactive); in [3], > 100 µM (inactive); in [4], > 100 µM (inactive); in experiment [5], > 100 µM; in experiment [6] it was > 100 µM (inactive). In addition, the GI50 in [7], in experiment [8], in experiment [9], in experiment [10], in [11] and in [12] was > 100 µM (inactive) each time. For the same molecule, the GI50 in [13], in experiment [14] and in experiment [15] was > 100 µM (inactive) in each case.

The record behind these values is ChEMBL document CHEMBL1201862, “PubChem BioAssay data set” (2004).
